In US20230338609A1, “MEDICAL DEVICES AND MATERIALS COMPRISING BIODEGRADABLE POLYESTERS” (AMICOAT AS, priority 2020, published 2023):
≈ marks a conversion by molar mass, not a printed value. Read-outs that look alike come from different tables or passages of the source. Residues, ends and D or L forms follow the SMILES beside them. *: point of attachment. NHPhenethyl = c1ccc(CCN*)cc1

Legend:
[1] = system: Clostridium difficile - antibiotic-susceptible clinical isolate; test: MIC microbroth dilution (CLSI); format: cell-based; parameters: unit not given beside the values; conditions: C. difficile
Method: Supplemented Brucella broth (SBB) was used for the anaerobic strains with an inoculum of approximately 10^6 CFU/mL. SBB is a broth consisting of 1% peptone, 0.5% ‘Lab-lemco’, 1% glucose and 0.5% sodium chloride supplemented with 5 […] vitamin K (both obtained from Sigma Aldrich Ltd.)

[2] = system: Haemophilus influenzae - ATCC 47247; test: MIC microbroth dilution (CLSI), extra control strain; parameters: unit not given beside the values; conditions: H. influenzae ATCC 47247; HTM
[3] = system: Staphylococcus aureus, strain ATCC 25923; conditions: for MIC S. aureus: Staphylococcus aureus ATCC 25923
[4] = system: Eggerthella lenta - ATCC 43055; test: MIC microbroth dilution (CLSI), extra control strain; format: cell-based; parameters: unit not given here; conditions: SBB
[5] = system: Bacteroides fragilis - ATCC 25285; test: as above; format: cell-based; parameters: unit not given here; conditions: B. fragilis ATCC 25285; SBB
[6] = system: Methicillin resistant Staphylococcus epidermidis (MRSE) strain ATCC 27626; conditions: for MIC MRSE: MRSE ATCC 27626
[7] = system: Candida parapsilosis ATCC 22019; test: MIC microbroth dilution (CLSI), extra control strain; format: cell-based; conditions: C. parapsilosis ATCC 22019; RPMI 1640
Method: Yeast and filamentous fungal MIC were performed in MOPS buffered RPMI 1640 medium (MOPS buffer obtained from Sigma Aldrich Ltd., RPMI 1640 obtained from Invitrogen Ltd, Paisley, Scotland). The yeast inocula were in the range 7.5×10^2-4×10^3 CFU/mL and the filamentous fungi approximately 8×10^3-1×10^5 CFU/mL

[8] = system: Moraxella catarrhalis - reduced fluoroquinolone susceptibility clinical isolate; format: cell-based; conditions: M. catarrhalis reduced fluoroquinolone susceptibility
Text: (§1) Cation-adjusted Mueller-Hinton broth (Oxoid Ltd., Basingstoke, UK and Trek Diagnostic Systems Ltd., East Grinstead, UK) (supplemented with 5% laked horse blood for Streptococcus spp., Corynebacterium jeikeium and Listeria monocytogenes) was used for aerobic bacteria, with an initial inoculum of approximately 10^5 colony-forming units (CFU)/mL.

[9] = system: Moraxella catarrhalis - β -lactamase positive clinical isolate; format: cell-based; conditions: M. catarrhalis β-lactamase positive
Text: as §1

[10] = system: Streptococcus pyogenes - Macrolide (M-type) resistance clinical isolate; format: cell-based; conditions: S. pyogenes Macrolide (M-type) resistance
Text: as §1

[11] = system: Shigella sp - antibiotic-susceptible clinical isolate; test: MIC microbroth dilution (CLSI); format: cell-based
Text: as §1

[12] = system: Salmonella sp - multi-drug resistant clinical isolate; test: MIC microbroth dilution (CLSI); format: cell-based
Text: as §1

[13] = system: Salmonella sp - antibiotic-susceptible clinical isolate; test: MIC microbroth dilution (CLSI); format: cell-based
Text: as §1

[14] = system: Methicillin resistant Staphylococcus aureus (MRSA) strain ATCC 33591; conditions: for MIC MRSA: MRSA ATCC 33591
[15] = system: Streptococcus pyogenes CS301; test: Murine skin infection model, topical treatment; format: in vivo; conditions: mice
Method: (§2) The skin of mice was infected with Staphylococcus aureus or Streptococcus pyogenes and subsequently given a total of three treatments at three hourly intervals. Three hours after the last treatment, skin biopsies were collected and the number of colony forming units (CFUs) present in the skin sample was determined. Results are shown in FIGS. 1 and 2, expressed as the number of colony forming units per mouse.
as §2, with “3, 4” for “1”, “5” for “2,”

[16] = system: Staphylococcus aureus FDA486; test: Murine skin infection model, topical treatment; format: in vivo; conditions: mice; cream or gel containing 2% (w/w); three treatments at three hourly intervals; biopsy three hours after last
Method: as §2
as §2, with “3, 4” for “1”, “5” for “2,”

[17] = Solubility in organic solvents; format: physicochemical; conditions: THF and chloroform
Method: Alternatively, both the compound of Formula (I) and the polymer may be dissolved in a single solvent, either prior to mixing, at the time or mixing or after mixing. Suitable solvents for this approach include THF and chloroform. It may be necessary to combine the compound of Formula (I) with the solvent, e.g. THF, for a long time, e.g. at least 4 hours, preferably at least 12 hours, maybe 1 or more days, possibly up to 7 or 14 days.
The Resomer RG502 bioresorbable polymer material and AMC-109 were separately dissolved in THF in such a manner that amount of AMC-109 compared to the bioresorbable polymer in the final painting solution was 5%. The dissolution of AMC-109 in THF takes several hours.
The Resomer L2065 bioresorbable polymer material and AMC-109 were separately dissolved in dichloromethane and chloroform, respectively. The ratio between AMC-109 and L2065 was the same as above.

S. pyogenes = conditions: Table 5
C. albicans = conditions: Table 5
E. coli = conditions: Table 5
P. aeruginosa = conditions: Table 5

Structure (SMILES): N=C(N)NCCCC(N)C(=O)NC(Cc1ccc(-c2ccc3ccccc3c2)cc1)C(=O)NC(CCCNC(=N)N)C(=O)NCCc1ccccc1 (stereo not shown) [Compound 1]
- MIC [1]: 32
- MIC (control strain) [2]: 32
- MIC S. aureus [3]: 4 µM (≈ 2.83 µg/mL)
- MIC (control strain) [4]: 16
- MIC (control strain) [5]: 64
- MIC MRSE [6]: <3 µM
- MIC (control strain) [7]: 4
- MIC [8]: 8
- MIC [9]: 4
- MIC [10]: 32
- MIC [11]: 32
- MIC [12]: 16
- MIC [13]: 16
- MIC MRSA [14]: <3 µM

Structure (SMILES): CC(C)(C)c1cc(C(C)(C)C)c2[nH]c(C(C)(C)C)c(CC(NC(=O)C(N)CCCNC(=N)N)C(=O)NC(CCCNC(=N)N)C(=O)NCCc3ccccc3)c2c1 (stereo not drawn) [Compound 2, Arg-Tbt-Arg-NHCH2CH2Ph]
- MIC [1]: 16
- MIC (control strain) [2]: 4
- MIC (control strain) [4]: 32
- number of CFUs in skin biopsy vs placebo gel and bactroban ([15]; 1% or 2% gel, three treatments at three hourly intervals): more effective at reducing the number of CFUs than the placebo gel or the bactroban
- number of CFUs in skin biopsy, 2% gel compared with 1% gel ([15]; 2% gel vs 1% gel): more effective than the gel containing only 1% of compound 2
- number of CFUs in skin biopsy vs placebo [16]: the number of CFUs was reduced
- MIC (control strain) [5]: 64
- MIC (control strain) [7]: 8
- MIC [8]: 8
- MIC [9]: 4
- MIC [10]: 16
- MIC [11]: 8
- MIC [12]: 8
- MIC [13]: 8
- solubility [17]: soluble in THF and chloroform

Structure (SMILES): N=C(N)NCCC[C@H](NC(=O)[C@H](Cc1c[nH]c2ccccc12)NC(=O)[C@@H](N)CCCNC(=N)N)C(=O)NCCc1ccccc1 [Compound 6, reference compound] (H-Arg-Trp-Arg-NHPhenethyl; N-terminus assumed)
- MIC S. aureus [3]: 145 µM (≈ 89.9 µg/mL)
- MIC MRSE [6]: 81 µM (≈ 50.2 µg/mL)
- MIC MRSA [14]: 97 µM (≈ 60.1 µg/mL)

Structure (SMILES): CCCCNC(=O)[C@H](CCCNC(=N)N)NC(=O)[C@H](Cc1c(C(C)(C)C)[nH]c2c(C(C)(C)C)cc(C(C)(C)C)cc12)NC(=O)[C@@H](N)CCCNC(=N)N [Compound 9]
- S. aureus (MIC) ([3]; ATCC 25923): 2 µg/mL
- MRSE (MIC) ([6]; ATCC 27626): <2 µg/mL
- S. pyogenes (MIC) (S. pyogenes): 2 µg/mL
- MRSA (MIC) ([14]; ATCC 33591): 3 µg/mL
- C. albicans (MIC) (C. albicans): 10 µg/mL

Structure (SMILES): CCCNC(=O)[C@H](CCCNC(=N)N)NC(=O)[C@H](Cc1c(C(C)(C)C)[nH]c2c(C(C)(C)C)cc(C(C)(C)C)cc12)NC(=O)[C@@H](N)CCCNC(=N)N [Compound 10]
- S. aureus (MIC) ([3]; ATCC 25923): 2 µg/mL
- MRSE (MIC) ([6]; ATCC 27626): <2 µg/mL
- S. pyogenes (MIC) (S. pyogenes): 2 µg/mL
- MRSA (MIC) ([14]; ATCC 33591): 3 µg/mL
- C. albicans (MIC) (C. albicans): 10 µg/mL

Structure (SMILES): CCCCCCCCCCCCCCCCNC(=O)[C@H](CCCNC(=N)N)NC(=O)[C@H](Cc1c(C(C)(C)C)[nH]c2c(C(C)(C)C)cc(C(C)(C)C)cc12)NC(=O)[C@@H](N)CCCNC(=N)N [Compound 11]
- S. aureus (MIC) ([3]; Table 5, strain ATCC 25923): 5 µg/mL
- E. coli (MIC) (E. coli): >100 µg/mL
- MRSE (MIC) ([6]; Table 5, strain ATCC 27626): 4 µg/mL
- P. aeruginosa (MIC) (P. aeruginosa): >100 µg/mL
- S. pyogenes (MIC) (S. pyogenes): 6 µg/mL
- MRSA (MIC) ([14]; Table 5, strain ATCC 33591): 4 µg/mL
- C. albicans (MIC) (C. albicans): >100 µg/mL

Structure (SMILES): CC(C)CNC(=O)[C@H](CCCNC(=N)N)NC(=O)[C@H](Cc1c(C(C)(C)C)[nH]c2c(C(C)(C)C)cc(C(C)(C)C)cc12)NC(=O)[C@@H](N)CCCNC(=N)N [Compound 12]
- S. aureus (MIC) ([3]; ATCC 25923): <2 µg/mL
- MRSE (MIC) ([6]; ATCC 27626): 2 µg/mL
- S. pyogenes (MIC) (S. pyogenes): 2 µg/mL
- MRSA (MIC) ([14]; ATCC 33591): 3 µg/mL
- C. albicans (MIC) (C. albicans): 10 µg/mL

Structure (SMILES): CC(C)(C)c1cc(C(C)(C)C)c2[nH]c(C(C)(C)C)c(C[C@H](NC(=O)[C@@H](N)CCCNC(=N)N)C(=O)N[C@@H](CCCNC(=N)N)C(=O)NC3CCCCC3)c2c1 [Compound 13]
- S. aureus (MIC) ([3]; ATCC 25923): <2 µg/mL
- MRSE (MIC) ([6]; ATCC 27626): 2 µg/mL
- S. pyogenes (MIC) (S. pyogenes): <2 µg/mL
- MRSA (MIC) ([14]; ATCC 33591): 2 µg/mL
- C. albicans (MIC) (C. albicans): 10 µg/mL

Structure (SMILES): CC(C)(C)c1cc(C(C)(C)C)c2[nH]c(C(C)(C)C)c(C[C@H](NC(=O)[C@@H](N)CCCNC(=N)N)C(=O)N[C@@H](CCCNC(=N)N)C(=O)NC3CCCC3)c2c1 [Compound 14]
- S. aureus (MIC) ([3]; ATCC 25923): <2 µg/mL
- MRSE (MIC) ([6]; ATCC 27626): <2 µg/mL
- S. pyogenes (MIC) (S. pyogenes): 2 µg/mL
- MRSA (MIC) ([14]; ATCC 33591): >15 µg/mL
- C. albicans (MIC) (C. albicans): 10 µg/mL
